Laboratory results: patent US20210261569A1, “FUSED HETEROCYCLIC DERIVATIVES HAVING SELECTIVE BACE1 INHIBITORY ACTIVITY” (Shionogi & Co., Ltd., priority 2018, published 2021)

Columns and labels:
[1] = target: T1, recombinant BACE2 protein (Homo sapiens, UniProt Q9Y5Z0); test: BACE2 biochemical FRET based assay; conditions: pH 5.0, 450 min at room temperature
T1 construct: recombinant BACE2 protein in a final concentration of 0.4 μg/mL
T1 sequence (Q9Y5Z0 63-518): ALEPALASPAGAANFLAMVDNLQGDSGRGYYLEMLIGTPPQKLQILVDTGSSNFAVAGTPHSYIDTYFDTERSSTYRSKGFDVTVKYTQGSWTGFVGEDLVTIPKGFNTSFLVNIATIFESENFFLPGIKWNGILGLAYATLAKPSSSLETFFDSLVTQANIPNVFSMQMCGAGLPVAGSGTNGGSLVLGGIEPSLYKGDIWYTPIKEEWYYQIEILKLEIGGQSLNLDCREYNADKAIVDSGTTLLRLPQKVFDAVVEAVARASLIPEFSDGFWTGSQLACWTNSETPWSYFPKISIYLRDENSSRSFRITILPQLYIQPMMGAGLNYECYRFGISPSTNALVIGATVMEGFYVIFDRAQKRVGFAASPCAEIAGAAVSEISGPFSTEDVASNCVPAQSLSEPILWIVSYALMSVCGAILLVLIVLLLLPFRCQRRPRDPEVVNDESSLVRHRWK
Source text: (§1) This assay is a Fluorescence Resonance Energy Transfer Assay (FRET) based assay. The substrate for this assay contains the ‘Swedish’ Lys-Met/Asn-Leu mutation of the amyloid precursor protein (APP) beta-secretase cleavage site. This substrate also contains two fluorophores: (7-methoxycoumarin-4-yl) acetic acid (Mca) is a fluorescent donor with excitation wavelength at 320 nm and emission at 405 nm and 2,4-dinitrophenol (Dnp) is a proprietary quencher acceptor. […] Upon cleavage by the beta-secretase, the fluorophore Mca is separated from the quenching group Dnp, restoring the full fluorescence yield of the donor. The increase in fluorescence is linearly related to the rate of proteolysis.
Briefly in a 384-well format recombinant BACE2 protein in a final concentration of 0.4 μg/mL was incubated for 450 minutes at room temperature with 10 μM substrate in incubation buffer (final concentrations: 33.3 mM Citrate buffer pH 5.0, 0.033% PEG, 2% DMSO) in the absence or presence of compound. Next the amount of proteolysis was directly measured by fluorescence measurement at T=0 and T=450 (excitation at 320 nm and emission at 405 nm). Results were expressed in RFU (Relative Fluorescence Units), as difference between T450 and T0.
(§2) A best-fit curve was fitted by a minimum sum of squares method to the plot of % Controlmin versus compound concentration. From this an IC50 value (inhibitory concentration causing 50% inhibition of activity) can be obtained.

[2] = target: T2, recombinant BACE1 protein (Homo sapiens, UniProt P56817); test: BACE1 biochemical FRET based assay; conditions: for Selectivity: BACE2 IC50 relative to BACE1 IC50; for IC50: FRET, pH 5.0, 450 min at room temperature
T2 construct: recombinant BACE1 protein in a final concentration of 0.04 μg/mL
T2 sequence (P56817 46-501): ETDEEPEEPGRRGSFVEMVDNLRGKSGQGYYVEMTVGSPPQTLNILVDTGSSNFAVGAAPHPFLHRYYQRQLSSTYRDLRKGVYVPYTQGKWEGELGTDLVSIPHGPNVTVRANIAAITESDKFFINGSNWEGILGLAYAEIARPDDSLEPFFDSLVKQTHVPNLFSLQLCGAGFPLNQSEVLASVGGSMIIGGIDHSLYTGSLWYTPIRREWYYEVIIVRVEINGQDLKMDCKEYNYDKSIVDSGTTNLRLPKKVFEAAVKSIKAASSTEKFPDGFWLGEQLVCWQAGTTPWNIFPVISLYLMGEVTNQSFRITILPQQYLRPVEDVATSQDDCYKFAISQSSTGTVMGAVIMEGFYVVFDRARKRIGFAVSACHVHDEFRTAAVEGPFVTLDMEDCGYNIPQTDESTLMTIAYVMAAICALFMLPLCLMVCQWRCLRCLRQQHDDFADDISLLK
Source text: as §1, with “this assay is an APP derived 13 amino acids peptide that contains the” for “this assay contains the”, “protein (APP) beta-site secretase cleavage site.” for “protein (APP) beta-secretase cleavage site.”, “cleavage by BACE1, the fluorophore” for “cleavage by the beta-secretase, the fluorophore”
Briefly in a 384-well format recombinant BACE1 protein in a final concentration of 0.04 μg/mL was incubated for 450 minutes at room temperature with 10 μm substrate in incubation buffer (final concentrations: 33.3 mM Citrate buffer pH 5.0, 0.033% PEG, 3% DMSO) in the absence or presence of compound. Next the amount of proteolysis was directly measured by fluorescence measurement at T=0′-120′ and T=450′ (excitation at 320 nm and emission at 405 nm). Results were expressed in RFU (Relative Fluorescence Units), as difference between T450 and Tx (Tx is chosen depending on the reaction speed between 0 and 120 minutes).
as §2

Metabolic stability test = format: in vitro ADME; conditions: human liver microsomes 0.5 mg protein/mL, NADPH, 37° C.
Description: Using a commercially available pooled human liver microsomes, a compound of the present invention was reacted for a constant time, a remaining rate was calculated by comparing a reacted sample and an unreacted sample, thereby, a degree of metabolism in liver was assessed.
A reaction was performed (oxidative reaction) at 37° C. for 0 minute or 30 minutes in the presence of 1 mmol/L NADPH in 0.2 mL of a buffer (50 mmol/L Tris-HCl pH 7.4, 150 mmol/L potassium chloride, 10 mmol/L magnesium chloride) containing 0.5 mg protein/mL of human liver microsomes. After the reaction, 50 μL of the reaction solution was added to 100 μL of a methanol/acetonitrile=1/1 (v/v), mixed and centrifuged at 3000 rpm for 15 minutes. The compound of the present invention in the supernatant was quantified by LC/MS/MS or solid phase extraction (SPE)/MS, and a remaining amount of the compound of the present invention after the reaction was calculated, letting a compound amount at 0 minute reaction time to be 100%.

| IC50 [1] [nM] | Selectivity [2] | IC50 [2] [nM] | Remaining rate (%) at 30 min (Metabolic stability test) [%] | SMILES |
| --- | --- | --- | --- | --- |
| 309 | 28 | 11 | 92 | C[C@@H]1OC[C@H]2[C@@H]1OC(N)=N[C@]2(CF)c1cc(NC(=O)c2cnc(OCF)cn2)ccc1F [Compound I-082] |
| 389 | 31 | 13 | 92 | NC1=N[C@](CF)(c2cc(NC(=O)c3cnc(OCF)cn3)ccc2F)[C@H]2[C@H](CC(F)F)OC[C@H]2O1 [Compound I-116] |
